According to publication PMC10018336 (Nucleic Acids Research, 2023):
Positions count from the first letter of the chain named.

Tests used:
Assay in all cases: microscale thermophoresis, RED-NHS labelled protein
Assay type in all cases: binding
Sso2081 (Crn1) [1] = molecular target: T1, Sso2081 (Crn1) (Saccharolobus solfataricus, UniProt Q7LYJ6, E17A)
T1 construct: full length aa 1-178; recombinant in E. coli Rosetta (DE3); N-terminal His6 tag cut with PreScission protease; homodimer
T1 sequence (Q7LYJ6 1-178 E17A): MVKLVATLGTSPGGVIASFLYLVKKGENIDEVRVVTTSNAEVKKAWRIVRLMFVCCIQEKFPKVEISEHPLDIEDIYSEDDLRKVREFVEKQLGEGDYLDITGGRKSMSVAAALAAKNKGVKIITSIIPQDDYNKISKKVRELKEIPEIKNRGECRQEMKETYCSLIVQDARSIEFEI

Sso2081 (Crn1) [2] = molecular target: T2, Sso2081 (Crn1) (Saccharolobus solfataricus, UniProt Q7LYJ6, K106A)
T2 construct: full length aa 1-178; recombinant in E. coli Rosetta (DE3); N-terminal His6 tag cut with PreScission protease; homodimer
T2 sequence (Q7LYJ6 1-178 K106A): T1 sequence (Q7LYJ6 1-178 E17A) with A17E, K106A

Sso2081 (Crn1) [3] = molecular target: T3, Sso2081 (Crn1) (Saccharolobus solfataricus, UniProt Q7LYJ6, S11A)
T3 construct: full length aa 1-178; recombinant in E. coli Rosetta (DE3); N-terminal His6 tag cut with PreScission protease; homodimer
T3 sequence (Q7LYJ6 1-178 S11A): T1 sequence (Q7LYJ6 1-178 E17A) with S11A, A17E

Sso2081 (Crn1) [4] = molecular target: T4, Sso2081 (Crn1) (Saccharolobus solfataricus, UniProt Q7LYJ6, T10A)
T4 construct: full length aa 1-178; recombinant in E. coli Rosetta (DE3); N-terminal His6 tag cut with PreScission protease; homodimer
T4 sequence (Q7LYJ6 1-178 T10A): T1 sequence (Q7LYJ6 1-178 E17A) with T10A, A17E

Sso2081 (Crn1) [5] = molecular target: T5, Sso2081 (Crn1) (Saccharolobus solfataricus, UniProt Q7LYJ6, D75A)
T5 construct: full length aa 1-178; recombinant in E. coli Rosetta (DE3); N-terminal His6 tag cut with PreScission protease; homodimer
T5 sequence (Q7LYJ6 1-178 D75A): T1 sequence (Q7LYJ6 1-178 E17A) with A17E, D75A

What does the source list for `Nc1ncnc2c1ncn2[C@@H]1O[C@@H]2COP(=O)(O)O[C@H]3[C@@H](O)[C@H](n4cnc5c(N)ncnc54)O[C@@H]3COP(=O)(O)O[C@H]3[C@@H](O)[C@H](n4cnc5c(N)ncnc54)O[C@@H]3COP(=O)(O)O[C@H]3[C@@H](O)[C@H](n4cnc5c(N)ncnc54)O[C@@H]3COP(=O)(O)O[C@H]2[C@H]1O` [cA4]?
Kd (Sso2081 (Crn1) [1]): 17 ± 1.2 nM; Kd (Sso2081 (Crn1) [2]): 22.8 ± 10.1 nM; Kd (Sso2081 (Crn1) [3]): 43.2 ± 25.5 nM; Kd (Sso2081 (Crn1) [4]): 17.3 ± 9.2 nM; Kd (Sso2081 (Crn1) [5]): 75.5 ± 34.1 nM
